Test results reported in US8652483B2, “Viral infection enhancing peptide” (priority 2010, dated 2014).
Where “and” joins values, the source holds several entries; their conditions need not be identical. Equal values may be shown once. No end group written: not given here.

Columns and labels:
[1] = system: KG-1 cells; test: Cytotoxicity of SWB; format: cell-based, human
[2] = system: Jurkat T cells; test: Cytotoxicity of SWB; format: cell-based
[3] = system: CEM-M7 cells; test: Cytotoxicity of SWB; format: cell-based
[4] = system: primary peripheral blood mononuclear cells (PBMC); test: Cytotoxicity of SWB; format: cell-based
[5] = Solubility limit in DMSO; format: physicochemical; settings: read-out: solubility limit in DMSO (concentrations above were not completely dissolved)
[6] = Congo Red (CR) staining assay; format: physicochemical; settings: DMSO stock freshly diluted in PBS
Description: (§1) To investigate if SW1010 (like PAP248-286) forms insoluble aggregates, in particular amyloid like material, the reactivity of a freshly prepared SW1010 peptide solution to the amyloid specific dye Thioflavin T (ThT) was analyzed. […] Further evidence that SW1010 forms amyloid like material was derived by staining with another amyloid specific dye, Congo Red (CR) (Münch et al., 2007). […] Thus, when used to enhance retroviral infection or transduction efficiencies (FIG. 1 F), the peptide of the invention provides an important advantage over SEVI amyloid fibrils that have to be generated by agitating the monomeric PAP248-286 by several hours or days on a table rotator (Münch et al., 2007; Wurm et al., 2009).
(§2) Similarly, all SW1010 derivatives were analyzed for ThT and CR reactivity.
To test if SWB is soluble in solvents other than DMSO and can form virus enhancing amyloid like material upon diluting in PBS, the inventors resuspended SWB powder in various solvents. […] Since acetic acid stocks were highly toxic for cell culture at higher concentrations, all following SWB stock solutions were then prepared by dissolving the peptide in less cytotoxic DMSO. In all subsequent experiments the concentrations of DMSO in the presence of virus or cells were lower than 1%, preferably between about 0.2 and about 1%.

[7] = system: R5 HIV-1 (CCR5 tropic HIV-1 NL4-3 92TH014-2); test: HIV-1 infection of TZM-bl cells, R5 virus; format: cell-based; settings: for enhancement of HIV infection: 1 ng p24 virus, 100 μg/ml peptide; for enhancers of HIV infection at the lowest viral dose: 0.01 ng p24 virus
[8] = Thioflavin T (ThT) fluorescence; format: physicochemical; settings: DMSO stock freshly diluted in PBS
Description: as §1, §2

Substance	Congo Red (CR) staining [6]	enhancement of HIV infection [7]	ThT fluorescence [8]	enhancers of HIV infection at the lowest viral dose [7]	also measured
QCKIKQIINMWQ [SWB]					toxic effects [1]: no toxic effects; toxic effects [2]: no toxic effects; toxic effects [3]: no toxic effects; toxic effects [4]: no toxic effects; solubility [5]: 25000 µM and 38000 µg/mL
SW1014: N-terminal half of SW1010 (QIINMWQEVG; SW-peptide derived from peptide gp120 of HIV-1 strain MN (Gurgo et al., 1988))	specific staining	weak or no effects	increases fluorescence intensities		
SWC: variant of SW1010 of different length (KIKQIINMWQ; SW-peptide derived from peptide gp120 of HIV-1 strain MN (Gurgo et al., 1988))	specific staining			most potent enhancers	
SWCON: peptide derived from a SW1010 homologous consensus sequence of all HIV-1 M strains (TITLPCRIKQIINMWQGVG; SW-peptide derived from peptide gp120 of HIV-1 strain MN (Gurgo et al., 1988))	specific staining		increases fluorescence intensities	most potent enhancers	
SWE: variant of SW1010 of different length (QCKIKQIINMW; SW-peptide derived from peptide gp120 of HIV-1 strain MN (Gurgo et al., 1988))	specific staining		increases fluorescence intensities	most potent enhancers	
SWNL43: peptide corresponding to SW1010 of the HIV-1 clone NL4-3 (TITLPCRIKQFINMWQEVG; SW-peptide derived from peptide gp120 of HIV-1 strain MN (Gurgo et al., 1988))	did react with CR to a lesser extend	weak or no effects			
